Measured values as given in patent US9776962B2, “Aromatic compounds with GPR40 agonistic activity” (TAKEDA PHARMACEUTICAL COMPANY LIMITED, priority 2013, dated 2017).

Biological target: T1, human GPR40 (Homo sapiens, UniProt O14842)
T1 construct: expressed in transfected cells
Assay: Evaluation of human GPR40 agonist activity with increase in intracellular Ca2+ concentration as an index (FLIPR)
Format: cell-based
Conditions: test compound 1 μM; CHO(dhfr−) cells stably expressing human GPR40; 100% = 10 μM compound of Example 153, 0% = DMSO
Protocol: Plasmid hGPR40/pAKKO-1.11H for mammalian cells expression, wherein cDNA fragment (SEQ ID NO: 1) encoding the full-length human GPR40 was incorporated into an expression vector pAKKO-1.11H (Biochimica et Biophysica Acta vol. 1219 pp. 251-259 (1994)), was transfected into CHO-dhfr(−) cells (ATCC, CRL-9096) by using Lipofectamine 2000 (Invitrogen:11668-019). After transfection, the limiting dilution-culture method was performed to select clone in selection medium (nucleic acid-free α-MEM (Invitrogen:12561-056)) containing 10% dialyzed bovine serum (Invitrogen:26400-044)). The expression level of human GPR40 mRNA was confirmed by TaqMan PCR (Life Technologies), and the intracellular calcium mobilization activity of GPR40 ligand (γ-linolenic acid) was confirmed by FLIPR (Molecular Devices), and a clone of human GPR40 expressing CHO cells was selected.
Evaluation of Human GPR40 Agonist Activity with Increase in Intracellular Ca^2+ Concentration as an Index
CHO(dhfr−) cells that stably expressed human GPR40 were suspended in MEMα (Nikken Bio Medical Laboratory) containing 10% dialyzed bovine serum (JR Scientific), 10 mM HEPES (Life Technologies), 100 U/mL penicillin, 100 μg/mL streptomycin (Life Technologies), and plated on a 384 well black/clear cell culture plate at 10,000 cells/well. After culture overnight in a CO2 incubator at 37° C., the culture supernatant was removed, and loading buffer [Ca^2+ probe attached to Calcium Kit II-iCellux (DOJINDO) was dissolved in assay buffer (20 mM HEPES, 0.1% fatty acid-free BSA (Sigma-Aldrich), 2.5 mM probenecid (DOJINDO)-containing HESS (Life Technologies))] was added at 30 μL/well. After leaving for 1 hr at room temperature under light shielding, assay buffer containing the test compound at a final concentration of 1 μM was added at 10 μL/well in FLIPR Tetra (Molecular Devices), and the fluorescence amount was successively measured. Human GPR40 agonist activity calculated using an increase in the intracellular Ca^2+ concentration as an index, wherein the activity of 10 μM of the compound of Example 153 was 100%, and the activity when DMSO was added instead of the test compound was 0%.

T1 sequence (O14842 whole entry): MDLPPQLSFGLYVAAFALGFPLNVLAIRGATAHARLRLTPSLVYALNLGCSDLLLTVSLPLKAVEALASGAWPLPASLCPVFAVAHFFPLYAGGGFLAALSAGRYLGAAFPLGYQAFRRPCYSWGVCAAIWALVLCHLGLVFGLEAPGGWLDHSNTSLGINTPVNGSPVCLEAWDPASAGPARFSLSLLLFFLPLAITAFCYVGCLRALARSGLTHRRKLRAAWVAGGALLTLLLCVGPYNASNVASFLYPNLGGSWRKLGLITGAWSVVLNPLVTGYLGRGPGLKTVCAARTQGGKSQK

Row | SMILES | activation at 1 µM
1 | COc1ccc(C(=O)N(CC2CC2)c2cc(C)ccn2)c(N2CCC(COc3cc(C(CC(=O)O)C4CC4)ccn3)CC2)c1 (stereo not shown) [Example 125, 3-cyclopropyl-3-(2-((1-(2-((cyclopropylmethyl)(4-methylpyridin-2-yl)carbamoyl)-5-methoxyphenyl)piperidin-4-yl)methoxy)pyridin-4-yl)propanoic acid] | 95%
2 | COc1ccc(C(=O)N(CC(C)(F)F)c2ccccn2)c(N2CCC(COc3cc(C(CC(=O)O)C4CC4)ccn3)CC2)c1 (stereo not shown) [Example 126, 3-cyclopropyl-3-(2-((1-(2-((2,2-difluoropropyl)(pyridin-2-yl)carbamoyl)-5-methoxyphenyl)piperidin-4-yl)methoxy)pyridin-4-yl)propanoic acid] | 99%
3 | COc1ccc(C(=O)N(CC(C)C)c2ccnc(OC)c2)c(N2CCC(COc3cc(C(CC(=O)O)C4CC4)ccn3)CC2)c1 (stereo not shown) [Example 127, 3-cyclopropyl-3-(2-((1-(5-methoxy-2-((2-methoxypyridin-4-yl)(2-methylpropyl)carbamoyl)phenyl)piperidin-4-yl)methoxy)pyridin-4-yl)propanoic acid] | 94%
4 | COc1ccc(C(=O)N(CC(C)C)c2cccc(OC)n2)c(N2CCC(COc3cc(C(CC(=O)O)C4CC4)ccn3)CC2)c1 (stereo not shown) [Example 128, 3-cyclopropyl-3-(2-((1-(5-methoxy-2-((6-methoxypyridin-2-yl)(2-methylpropyl)carbamoyl)phenyl)piperidin-4-yl)methoxy)pyridin-4-yl)propanoic acid] | 103%
5 | COc1ccc(C(=O)NCC(F)(F)C(F)(F)F)c(N2CCC(COc3cc(C(CC(=O)O)C4CC4)ccn3)CC2)c1 (stereo not shown) [Example 129, 3-cyclopropyl-3-(2-((1-(5-methoxy-2-((2,2,3,3,3-pentafluoropropyl)carbamoyl)phenyl)piperidin-4-yl)methoxy)pyridin-4-yl)propanoic acid] | 81%
6 | COc1ccc(C(=O)N(C)CC(F)(F)C(F)(F)F)c(N2CCC(COc3cc(C(CC(=O)O)C4CC4)ccn3)CC2)c1 (stereo not shown) [Example 130, 3-cyclopropyl-3-(2-((1-(5-methoxy-2-(methyl(2,2,3,3,3-pentafluoropropyl)carbamoyl)phenyl)piperidin-4-yl)methoxy)pyridin-4-yl)propanoic acid] | 100%
7 | COc1ccc(C(=O)N(CC(C)(C)OC)c2ccccn2)c(N2CCC(COc3cc(C(CC(=O)O)C4CC4)ccn3)CC2)c1 (stereo not shown) [Example 131, 3-cyclopropyl-3-(2-((1-(5-methoxy-2-((2-methoxy-2-methylpropyl)(pyridin-2-yl)carbamoyl)phenyl)piperidin-4-yl)methoxy)pyridin-4-yl)propanoic acid] | 85%
8 | COc1ccc(C(=O)N(CC(C)C)c2cccc(C#N)c2)c(N2CCC(COc3cc(C(CC(=O)O)C4CC4)ccn3)CC2)c1 (stereo not shown) [Example 132, 3-(2-((1-(2-((3-cyanophenyl)(2-methylpropyl)carbamoyl)-5-methoxyphenyl)piperidin-4-yl)methoxy)pyridin-4-yl)-3-cyclopropylpropanoic acid] | 99%
9 | COc1ccc(C(=O)N(CC(C)C)c2ccccc2)c(N2CCC(COc3cc(C(CC(=O)O)C4CC4)ccn3)CC2)c1 (stereo not shown) [Example 133, 3-cyclopropyl-3-(2-((1-(5-methoxy-2-((2-methylpropyl)(phenyl)carbamoyl)phenyl)piperidin-4-yl)methoxy)pyridin-4-yl)propanoic acid] | 98%
10 | COc1ccc(C(=O)N(CC(C)(C)C#N)c2ccccn2)c(N2CCC(COc3cc(C(CC(=O)O)C4CC4)ccn3)CC2)c1 (stereo not shown) [Example 134, 3-(2-((1-(2-((2-cyano-2-methylpropyl)(pyridin-2-yl)carbamoyl)-5-methoxyphenyl)piperidin-4-yl)methoxy)pyridin-4-yl)-3-cyclopropylpropanoic acid] | 84%
11 | COc1ccnc(N(CC(C)C)C(=O)c2ccc(OC)cc2N2CCC(COc3cc(C(CC(=O)O)C4CC4)ccn3)CC2)c1 (stereo not shown) [Example 135, 3-cyclopropyl-3-(2-((1-(5-methoxy-2-((4-methoxypyridin-2-yl)(2-methylpropyl)carbamoyl)phenyl)piperidin-4-yl)methoxy)pyridin-4-yl)propanoic acid] | 94%

Second part, the compound after the results:

Row | activation at 1 µM | SMILES
12 | 95% | COc1ccc(C(=O)N(CC(C)C)c2cccnc2OC)c(N2CCC(COc3cc(C(CC(=O)O)C4CC4)ccn3)CC2)c1 (stereo not shown) [Example 136, 3-cyclopropyl-3-(2-((1-(5-methoxy-2-((2-methoxypyridin-3-yl)(2-methylpropyl)carbamoyl)phenyl)piperidin-4-yl)methoxy)pyridin-4-yl)propanoic acid]
13 | 96% | COc1ccc(C(=O)N(CC(F)F)c2ccccn2)c(N2CCC(COc3cc(C(CC(=O)O)C4CC4)ccn3)CC2)c1 (stereo not shown) [Example 137, 3-cyclopropyl-3-(2-((1-(2-((2,2-difluoroethyl)(pyridin-2-yl)carbamoyl)-5-methoxyphenyl)piperidin-4-yl)methoxy)pyridin-4-yl)propanoic acid]
14 | 102% | COc1ccc(C(=O)N(CC(F)(F)C(F)F)c2ccccn2)c(N2CCC(COc3cc(C(CC(=O)O)C4CC4)ccn3)CC2)c1 (stereo not shown) [Example 138, 3-cyclopropyl-3-(2-((1-(5-methoxy-2-(pyridin-2-yl(2,2,3,3-tetrafluoropropyl)carbamoyl)phenyl)piperidin-4-yl)methoxy)pyridin-4-yl)propanoic acid]
15 | 96% | COc1ccc(C(=O)N(CC2CC2(F)F)c2ccccn2)c(N2CCC(COc3cc(C(CC(=O)O)C4CC4)ccn3)CC2)c1 (stereo not shown) [Example 139, 3-cyclopropyl-3-(2-((1-(2-(((2,2-difluorocyclopropyl)methyl)(pyridin-2-yl)carbamoyl)-5-methoxyphenyl)piperidin-4-yl)methoxy)pyridin-4-yl)propanoic acid]
16 | 93% | COc1ccc(C(=O)N(CC(C)C)c2ccc(OC)nc2)c(N2CCC(COc3cc(C(CC(=O)O)C4CC4)ccn3)CC2)c1 (stereo not shown) [Example 140, 3-cyclopropyl-3-(2-((1-(5-methoxy-2-((6-methoxypyridin-3-yl)(2-methylpropyl)carbamoyl)phenyl)piperidin-4-yl)methoxy)pyridin-4-yl)propanoic acid]
17 | 102% | COc1ccc(C(=O)N(CC(F)(F)F)c2cccc(C)n2)c(N2CCC(COc3cc(C(CC(=O)O)C4CC4)ccn3)CC2)c1 (stereo not shown) [Example 143, 3-cyclopropyl-3-(2-((1-(5-methoxy-2-((6-methylpyridin-2-yl)(2,2,2-trifluoroethyl)carbamoyl)phenyl)piperidin-4-yl)methoxy)pyridin-4-yl)propanoic acid]
18 | 79% | COc1ccc(C(=O)N(CC2(F)CC2)c2ccccn2)c(N2CCC(COc3cc(C(CC(=O)O)C4CC4)ccn3)CC2)c1 (stereo not shown) [Example 144, 3-cyclopropyl-3-(2-((1-(2-(((1-fluorocyclopropyl)methyl)(pyridin-2-yl)carbamoyl)-5-methoxyphenyl)piperidin-4-yl)methoxy)pyridin-4-yl)propanoic acid]
19 | 96% | CCC(C)(C)N(C(=O)c1ccc(OC)cc1N1CCC(COc2cc(C(CC(=O)O)C3CC3)ccn2)CC1)c1ccccn1 (stereo not shown) [Example 145, 3-cyclopropyl-3-(2-((1-(5-methoxy-2-((2-methylbutan-2-yl)(pyridin-2-yl)carbamoyl)phenyl)piperidin-4-yl)methoxy)pyridin-4-yl)propanoic acid]
